Measured values from patent US8470862B2, “Treatment or prevention of hypotension and shock” (Recro Pharma, Inc., priority 1999, dated 2013).

Tested on: anaesthetized rats
Assay: Blood pressure and heart rate after slow intravenous administration in anaesthetized rats
Type: in vivo
Settings: for HR (beats/min) / MAP (mmHg): mean ± SEM, n=6; for maximal change in HR / maximal change in MAP: percent change from baseline
Experimental: The effects of 3-(1H-imidazol-4-ylmethyl)-indan-5-ol on blood pressure and heart rate after slow intravenous administration were studied in anaesthetized rats. Dexmedetomidine (Orion Corporation Orion Pharma, Finland), a specific α2-adrenoceptor agonist was studied as a reference compound.
Male Spraque-Dawley rats (B&K, Sweden), weighing 290-400 g, were anaesthetized with sodium pentobarbital (Mebunat® 60 mg/ml) 75 mg/kg i.p. The left femoral vein was cannulated (PE-50) for slow drug injections. The left femoral artery was cannulated (PE-60) and the mean arterial blood pressure (MAP) and heart rate (HR) were recorded continuously via a Micro MP-15 transducer connected to a Grass Model 7D Polygraph. Arterial pressure was sampled at a rate 150 samples/second and recorded on a Pinus PC computer using the software program AcqKnowledge version 3.5.3 and a MP100A data acquisition unit for analog/digital conversion (BIOPAC Systems, Inc.). Pulse waves of the blood pressure were used for displaying heart rate continuously. The body temperature (rectal) was kept constant at 37±0.5° C. by warming with a lamp above the animal's chest. Only rats with MAP of 73 mmHg or higher were used for the tests. After a stabilizing period of 10-20 min, 3-(1H-imidazol-4-ylmethyl)-indan-5-ol (1 and 3 μg/kg, as hydrochloride) or dexmedetomidine (3 and 10 μg/kg, as hydrochlorides) dose was given as slow intravenous injection (during 5 min) by an infusion pump (Perfusor® ED 2, B. Braun). The total injection volume was adjusted to 1 ml in each experimental group.

[1] = dose 3 μg/kg slow i.v. (during 5 min), time 0 min
[2] = dose 3 μg/kg slow i.v. (during 5 min), time 3 min
[3] = dose 3 μg/kg slow i.v. (during 5 min), time 5 min
[4] = dose 3 μg/kg slow i.v. (during 5 min), time 10 min
[5] = dose 3 μg/kg slow i.v. (during 5 min), time 20 min
[6] = dose 3 μg/kg slow i.v. (during 5 min), time 30 min
[7] = dose 10 μg/kg slow i.v. (during 5 min), time 0 min
[8] = dose 10 μg/kg slow i.v. (during 5 min), time 2 min
[9] = dose 10 μg/kg slow i.v. (during 5 min), time 5 min
[10] = dose 10 μg/kg slow i.v. (during 5 min), time 10 min
[11] = dose 10 μg/kg slow i.v. (during 5 min), time 20 min
[12] = dose 10 μg/kg slow i.v. (during 5 min), time 30 min
[13] = slow intravenous administration of 3 and 10 μg/kg
[14] = dose 1 μg/kg slow i.v. (during 5 min), time 0 min
[15] = dose 1 μg/kg slow i.v. (during 5 min), time 3 min
[16] = dose 1 μg/kg slow i.v. (during 5 min), time 5 min
[17] = dose 1 μg/kg slow i.v. (during 5 min), time 10 min
[18] = dose 1 μg/kg slow i.v. (during 5 min), time 20 min
[19] = dose 1 μg/kg slow i.v. (during 5 min), time 30 min
[20] = slow (during 5 minutes) i.v. dosing of 1 and 3 μg/kg

Compound: Cc1cccc([C@H](C)c2cnc[nH]2)c1C [Dexmedetomidine, dexmedetomidine]
- HR (beats/min) [1]: 348 ± 12 beats/min
- MAP (mmHg) [1]: 89 ± 5 mmHg
- HR (beats/min) [2]: 310 ± 6 beats/min
- MAP (mmHg) [2]: 86 ± 5 mmHg
- HR (beats/min) [3]: 310 ± 5 beats/min
- MAP (mmHg) [3]: 79 ± 7 mmHg
- HR (beats/min) [4]: 308 ± 4 beats/min
- MAP (mmHg) [4]: 61 ± 4 mmHg
- HR (beats/min) [5]: 309 ± 5 beats/min
- MAP (mmHg) [5]: 65 ± 2 mmHg
- HR (beats/min) [6]: 309 ± 5 beats/min
- MAP (mmHg) [6]: 67 ± 2 mmHg
- HR (beats/min) [7]: 383 ± 11 beats/min
- MAP (mmHg) [7]: 92 ± 2 mmHg
- HR (beats/min) [8]: 308 ± 5 beats/min
- MAP (mmHg) [8]: 94 ± 4 mmHg
- HR (beats/min) [9]: 309 ± 3 beats/min
- MAP (mmHg) [9]: 75 ± 6 mmHg
- HR (beats/min) [10]: 303 ± 3 beats/min
- MAP (mmHg) [10]: 59 ± 3 mmHg
- HR (beats/min) [11]: 296 ± 7 beats/min
- MAP (mmHg) [11]: 68 ± 2 mmHg
- HR (beats/min) [12]: 297 ± 6 beats/min
- MAP (mmHg) [12]: 73 ± 2 mmHg
- maximal change in HR [13]: −21%
- maximal change in MAP [13]: −37%

Compound: Oc1ccc2c(c1)C(Cc1c[nH]cn1)CC2 (stereo not shown) [MPV-2426 Al, 3-(1H-imidazol-4-ylmethyl)-indan-5-ol]
- HR (beats/min) [14]: 373 ± 8 beats/min
- MAP (mmHg) [14]: 97 ± 4 mmHg
- HR (beats/min) [15]: 324 ± 9 beats/min
- MAP (mmHg) [15]: 114 ± 3 mmHg
- HR (beats/min) [16]: 321 ± 9 beats/min
- MAP (mmHg) [16]: 112 ± 3 mmHg
- HR (beats/min) [17]: 327 ± 7 beats/min
- MAP (mmHg) [17]: 83 ± 4 mmHg
- HR (beats/min) [18]: 319 ± 9 beats/min
- MAP (mmHg) [18]: 84 ± 4 mmHg
- HR (beats/min) [19]: 317 ± 9 beats/min
- MAP (mmHg) [19]: 80 ± 3 mmHg
- HR (beats/min) [1]: 366 ± 11 beats/min
- MAP (mmHg) [1]: 94 ± 5 mmHg
- HR (beats/min) [2]: 309 ± 7 beats/min
- MAP (mmHg) [2]: 123 ± 9 mmHg
- HR (beats/min) [3]: 311 ± 4 beats/min
- MAP (mmHg) [3]: 117 ± 12 mmHg
- HR (beats/min) [4]: 321 ± 4 beats/min
- MAP (mmHg) [4]: 88 ± 4 mmHg
- HR (beats/min) [5]: 321 ± 6 beats/min
- MAP (mmHg) [5]: 83 ± 5 mmHg
- HR (beats/min) [6]: 305 ± 6 beats/min
- MAP (mmHg) [6]: 77 ± 3 mmHg
- maximal change in HR [20]: −19%
- maximal change in MAP [20]: +31%
